Among the data in patent US20220370416A1, “COMPOUNDS AND METHODS FOR TARGETED DEGRADATION OF KRAS” (Arvinas Operations, Inc., priority 2020, published 2022) are DC50 and Dmax values, retold here.

Each structure is given as a SMILES string.

The target in this assay is KRAS^G12C (Homo sapiens, UniProt P01116, G12C). Kind of assay: KRAS^G12C degradation by immunoblot in NCI-H358 cells. The assay is classed as cell-based. The arrangement: MRTX849-VHL bifunctional compounds engage and degrade endogenous KRAS^G12C in NCI-H2030 cells; endogenous in cells; host or cells: NCI-H2030, NCI-H358, MIA PaCa-2, SW1573, NCI-H23. To be noted: NCI-H358, heterozygous KRAS^G12C. How it is done:
NCI-H2030 (CRL-5914), MIA PaCa-2 (CRL-1420), NCI-H23 (CRL-5800), NCI-H358 (CRL-5807), and HCT-116 (CCL-247) cells were obtained from ATCC, expanded immediately, and frozen down. Vials were thawed and used within 20 passages. SW1573 cells were a gift from Arvinas and were handled in the same manner. NCI-H2030, NCI-H23, and NCI-H358 were cultured in RPMI (ATCC30-2001) supplemented with 10% FBS (Biological Industries; cat. no. S1480) and 1% Penicillin-Streptomycin (ThermoFisher; cat. no. 15140122). HCT-116 cells were maintained in high glucose DMEM (ThermoFisher; cat. no. 11965084) supplemented as above. […]
Cell lysates were clarified at 21000×g for 15 mins at 4° C. Protein levels were quantified using a 50:1 mixture of bicinchoninic acid solution (Millipore Sigma; cat. no. B9643) and 4% (w/v) copper(II) sulfate solution (Millipore Sigma; cat. no. C2284) incubated at 37° C. for 30 mins. Absorbance values at 560 nm were read on an EnVision 2101 Multilabel Reader (PerkinElmer). […]
Band intensities were quantified using BioRad's Image Lab Software. Total KRAS levels were examined by quantifying levels of both conjugated KRAS^G12C and unbound KRAS (wt or mutant) using an analysis box that spanned the two bands. This same sized box was used to quantify unbound KRAS in DMSO treated samples to account for background, except for LC-2 Epimer in FIGS. 6A and 6B. […]
Background: In western blotting, separated proteins are transferred to a membrane and probed.

Chain of KRAS^G12C (P01116 1-188 isoform P01116-2 G12C): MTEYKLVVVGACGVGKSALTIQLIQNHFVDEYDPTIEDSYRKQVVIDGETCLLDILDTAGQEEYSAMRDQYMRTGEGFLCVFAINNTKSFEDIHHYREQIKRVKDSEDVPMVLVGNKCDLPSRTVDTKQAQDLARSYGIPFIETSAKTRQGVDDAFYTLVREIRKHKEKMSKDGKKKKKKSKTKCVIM

For `C=C(F)C(=O)N1CCN(c2nc(OC[C@@H]3CCCN3CCCOCCC(=O)N[C@H](C(=O)N3C[C@H](O)C[C@H]3C(=O)NCc3ccc(-c4scnc4C)cc3)C(C)(C)C)nc3c2CCN(c2cccc4cccc(Cl)c24)C3)C[C@@H]1CC#N` [LC-2, (2S,4R)-1-((S)-2-(3-(3-((S)-2-(((7-(8-chloronaphthalen-1-yl)-4-((S)-3-(cyanomethyl)-4-(2-fluoroacryloyl)piperazin-1-yl)-5,6,7,8-tetrahydropyrido[3,4-d]pyrimidin-2-yl)oxy)methyl)pyrrolidin-1-yl)propoxy)propanamido)-3,3-dimethylbutanoyl)-4-hydroxy-N-(4-(4-methylthiazol-5-yl)benzyl)pyrrolidine-2-carboxamide], half-maximal degradation (DC50) was put at 520 ± 300 nM and the Dmax (usually the largest share of the target that was removed) was more than 40%.
